Measurements from patent US5932709A (University of Michigan, priority 1997, dated 1999).
In brackets after ≈: the same amount, converted by molar mass.

Experiment: Solubility of HAR7 in various solvents and solvent systems
Assay type: physicochemical
Protocol: In addition to testing for water solubility, one of the analogs of the present invention, HAR7, was tested for solubility in various other solvents and solvent mixtures, to determine the system which provides the greatest solubility for the analog. The results of those solubility experiments are shown below in Table 2:
The solubility of HAR7 in various solvents and solvent systems was measured using one of two experimental methods, depending on the conditions and solvents used.
First, an evaporation method was used in which an excess quantity of HAR7 was added to the solvent of choice. The mixture was finely divided using ultrasonic vibration in order to dissolve the material thoroughly. The resulting mixture was filtered and the solution was evaporated to dryness using a rotary evaporator.
Second, a spectrophotometric method was used in which an excess quantity of HAR7 was added to the solvent of choice. The mixture was finely divided using ultrasonic vibration in order to dissolve the maximum amount of solid. The resulting suspension was filtered through a 0.45 μm nylon filter, and the clear solution was diluted in the same solvent and its concentration was measure spectrophotometrically, based upon an extinction coefficient of 17000 at 258 nm.

CC[C@@]1(O)C(=O)OCc2c1cc1n(c2=O)Cc2c-1nc1ccccc1c2CO[C@@H]1C=C[C@H](O)[C@@H](CO)O1 [HAR7, 7-[2,3-dideoxy-α-D-erythro-hex-2-enopyranosyl]-oxymethylcamptothecin]
solubility (0.1 m citrate buffer, aqueous buffer): 24 µg/mL (≈ 47.4 µM) | solubility (0.2 m acetate buffer, aqueous buffer): 23 µg/mL (≈ 45.4 µM) | solubility (0.2 m na2hpo4 buffer, aqueous buffer): 30 µg/mL (≈ 59.2 µM) | solubility (0.2 m nah2po4 buffer, aqueous buffer): 32 µg/mL (≈ 63.2 µM) | solubility (2 m acetate buffer, aqueous buffer): 29 µg/mL (≈ 57.3 µM) | solubility (4:1:5 pg/ethanol/dsw, organic solvent or mixture): 960 µg/mL (≈ 1900 µM) | solubility (4:1:5 pg/ethanol/saline, organic solvent or mixture): 893 µg/mL (≈ 1760 µM) | solubility (4:1:5 pg/ethanol/water, organic solvent or mixture): 740 µg/mL (≈ 1460 µM) | solubility (5% ethanol/dsw, organic solvent or mixture): 177 µg/mL (≈ 349 µM) | solubility (5% ethanol/water, organic solvent or mixture): 80 µg/mL (≈ 158 µM) | solubility (10% ethanol/water, organic solvent or mixture): 143 µg/mL (≈ 282 µM) | solubility (20% ethanol/water, organic solvent or mixture): 380 µg/mL (≈ 750 µM) | solubility (organic solvent or mixture, PEG 300 (Polyethylene Glycol 300)): > 5000 µg/mL | solubility (pure ethanol, organic solvent or mixture): 1980 µg/mL (≈ 3920 µM)
